Source: ChEMBL document CHEMBL3045122, “Synthesis, in vitro antimicrobial, antiproliferative, and QSAR studies of N-(substituted phenyl)-2/4-(1H-indol-3-ylazo)-benzamides” (Med Chem Res, 2013)

Columns and labels:
Aspergillus niger [1] = assay: Fungicidal activity against Aspergillus niger; assay type: functional
Staphylococcus aureus [2] = assay: Antibacterial activity against Staphylococcus aureus assessed as growth inhibition after 24 hr by tube dilution method; assay type: functional
Candida albicans [3] = assay: Fungicidal activity against Candida albicans; assay type: functional
MCF7 = assay: Cytotoxicity against Homo sapiens (human) MCF7 cells assessed as growth inhibition after 72 hr by MTT assay; assay type: functional, cell-based
Bacillus subtilis [4] = assay: Antibacterial activity against Bacillus subtilis assessed as growth inhibition after 24 hr by tube dilution method; assay type: functional
Candida albicans [5] = assay: Ratio of MFC to MIC for Candida albicans; assay type: functional
Staphylococcus aureus [6] = assay: Bactericidal activity against Staphylococcus aureus; assay type: functional
Escherichia coli [7] = assay: Ratio of MBC to MIC for Escherichia coli; assay type: functional
HCT-116 = assay: Cytotoxicity against Homo sapiens (human) HCT116 cells assessed as growth inhibition after 72 hr by MTT assay; assay type: functional, cell-based
Escherichia coli [8] = assay: Antibacterial activity against Escherichia coli assessed as growth inhibition after 24 hr by tube dilution method; assay type: functional
Bacillus subtilis [9] = assay: Bactericidal activity against Bacillus subtilis; assay type: functional
Escherichia coli [10] = assay: Bactericidal activity against Escherichia coli; assay type: functional
Aspergillus niger [11] = assay: Ratio of MFC to MIC for Aspergillus niger; assay type: functional
Candida albicans [12] = assay: Antifungal activity against Candida albicans assessed as growth inhibition after 48 hr by tube dilution method; assay type: functional
Aspergillus niger [13] = assay: Antifungal activity against Aspergillus niger assessed as growth inhibition after 7 days by tube dilution method; assay type: functional
Bacillus subtilis [14] = assay: Ratio of MBC to MIC for Bacillus subtilis; assay type: functional
Staphylococcus aureus [15] = assay: Ratio of MBC to MIC for Staphylococcus aureus; assay type: functional
P388 = assay: Cytotoxicity against Mus musculus (mouse) P388 cells assessed as growth inhibition after 72 hr by MTT assay; assay type: functional, cell-based

| Structure (SMILES) | MFC (Aspergillus niger [1]) [uM/ml] | -logMIC (Staphylococcus aureus [2]) | MFC (Candida albicans [3]) [uM/ml] | IC50 (MCF7) [uM/ml] | -logMIC (Bacillus subtilis [4]) | Ratio (Candida albicans [5]) | MBC (Staphylococcus aureus [6]) [uM/ml] | Ratio (Escherichia coli [7]) | IC50 (HCT-116) [uM/ml] | -logMIC (Escherichia coli [8]) | MBC (Bacillus subtilis [9]) [uM/ml] | MBC (Escherichia coli [10]) [uM/ml] | Ratio (Aspergillus niger [11]) | -logMIC (Candida albicans [12]) | -logMIC (Aspergillus niger [13]) | Ratio (Bacillus subtilis [14]) | Ratio (Staphylococcus aureus [15]) | IC50 (P388) |
| --- | --- | --- | --- | --- | --- | --- | --- | --- | --- | --- | --- | --- | --- | --- | --- | --- | --- | --- |
| O=C(Nc1ccccc1Cl)c1ccccc1/N=N\c1c[nH]c2ccccc12 | 0.03 | 1.18 | >0.13 | 0.1067 | 1.48 | 3 | >0.13 | 3 | 0.24 | 1.48 | >0.13 | >0.13 | 3 | 1.48 | 1.48 | 3 | 3 |  |
| O=C(Nc1cccc(Cl)c1)c1ccccc1/N=N\c1c[nH]c2ccccc12 | 0.03 | 1.18 | >0.13 | 0.1067 | 1.48 | 3 | >0.13 | 3 | 0.2933 | 1.78 | >0.13 | >0.13 | 3 | 1.48 | 1.48 | 3 | 3 |  |
| O=C(Nc1ccc(Cl)cc1)c1ccccc1/N=N\c1c[nH]c2ccccc12 | 0.03 | 1.18 | >0.13 | 0.1067 | 1.48 | 3 | >0.13 | 3 | 0.3467 | 1.48 | >0.13 | >0.13 | 3 | 1.48 | 1.48 | 3 | 3 |  |
| Cc1ccccc1NC(=O)c1ccccc1/N=N\c1c[nH]c2ccccc12 | 0.04 | 1.15 | >0.14 | 0.1412 | 1.45 | 3 | >0.14 | 3 | 1.1299 | 1.45 | >0.14 | >0.14 | 3 | 1.45 | 1.45 | 3 | 3 |  |
| O=C(Nc1ccccc1)c1ccccc1/N=N\c1c[nH]c2ccccc12 | 0.04 | 1.13 | >0.15 | 0.0882 | 1.74 | 3 | >0.15 | 3 | 0.2353 | 1.74 | >0.15 | >0.15 | 3 | 1.44 | 1.44 | 3 | 3 |  |
| Cc1ccc(NC(=O)c2ccccc2/N=N\c2c[nH]c3ccccc23)c(C)c1 | 0.03 | 1.17 | >0.14 | 0.1087 | 1.47 | 3 | >0.14 | 3 | 0.0815 | 1.47 | >0.14 | >0.14 | 3 | 1.47 | 1.47 | 3 | 3 |  |
| Cc1cccc(NC(=O)c2ccccc2/N=N\c2c[nH]c3ccccc23)c1 | 0.04 | 1.45 | >0.14 | 0.1271 | 1.75 | 3 | >0.14 | 3 | 0.1695 | 1.75 | >0.14 | >0.14 | 3 | 1.45 | 1.45 | 3 | 3 |  |
| Cc1ccc(NC(=O)c2ccccc2/N=N\c2c[nH]c3ccccc23)cc1 | 0.04 | 1.15 | >0.14 | 0.0791 | 1.45 | 3 | >0.14 | 3 | 0.452 | 1.45 | >0.14 | >0.14 | 3 | 1.45 | 1.45 | 3 | 3 |  |
| Cc1ccc(C)c(NC(=O)c2ccc(/N=N\c3c[nH]c4ccccc34)cc2)c1 | 0.03 | 1.47 | 0.07 | 0.0299 | 1.47 | 3 | >0.14 | 3 | 0.5435 | 1.77 | >0.14 | >0.14 | 3 | 1.47 | 1.47 | 3 | 3 | Not Active |
| COc1ccccc1NC(=O)c1ccc(/N=N\c2c[nH]c3ccccc23)cc1 | 0.07 | 1.47 | 0.03 | 0.0865 | 1.47 | 3 | >0.13 | 3 | 0.1216 | 1.47 | >0.13 | >0.13 | 3 | 1.47 | 1.47 | 3 | 3 | Not Active |
| Cc1ccccc1NC(=O)c1ccc(/N=N\c2c[nH]c3ccccc23)cc1 | 0.04 | 1.15 | >0.14 | 0.0734 | 1.45 | 3 | >0.14 | 3 | 0.5085 | 1.45 | >0.14 | >0.14 | 3 | 1.45 | 1.45 | 3 | 3 | Not Active |
| Cc1cccc(NC(=O)c2ccccc2/N=N\c2c[nH]c3ccccc23)c1C | 0.03 | 1.17 | >0.14 | 0.1087 | 1.47 | 3 | >0.14 | 3 | 0.3533 | 1.77 | >0.14 | >0.14 | 3 | 1.47 | 1.47 | 3 | 3 |  |
| Cc1ccc(C)c(NC(=O)c2ccccc2/N=N\c2c[nH]c3ccccc23)c1 | 0.03 | 1.17 | >0.14 | 0.1087 | 1.77 | 3 | >0.14 | 3 | 0.163 | 1.47 | >0.14 | >0.14 | 3 | 1.47 | 1.47 | 3 | 3 |  |
| O=C(Nc1ccccc1F)c1ccccc1/N=N\c1c[nH]c2ccccc12 | 0.03 | 1.16 | >0.14 | 0.1397 | 1.46 | 3 | >0.14 | 3 | 0.2235 | 1.76 | >0.14 | >0.14 | 3 | 1.46 | 1.46 | 3 | 3 |  |
| OC(Cn1cncn1)(Cn1cncn1)c1ccc(F)cc1F [FLUCONAZOLE] | 0.04 |  | 0.04 |  |  | 3 |  |  |  |  |  |  | 3 | 2.64 | 2.64 |  |  |  |
| O=c1[nH]cc(F)c(=O)[nH]1 [FLUOROURACIL] |  |  |  | 0.0052 |  |  |  |  | 0.0462 |  |  |  |  |  |  |  |  | 0.0219 uM/ml |
| CCn1cc(C(=O)O)c(=O)c2cc(F)c(N3CCNCC3)cc21 [NORFLOXACIN] |  | 2.61 |  |  | 2.61 |  | 0.019 | 3 |  | 2.61 | 0.019 | 0.019 |  |  |  | 3 | 3 |  |
